{"source": "paper PMC7010297", "about": "“How the initiating ribosome copes with ppGpp to translate mRNAs” (PLoS Biology, 2020)", "key": {"[1]": {"biological_target": "T1, IF2-bound 30S IC (Escherichia coli, UniProt P0A705)", "T1 construct": "6xHis (N); made in house", "T1 sequence (P0A705 whole entry, looked up)": "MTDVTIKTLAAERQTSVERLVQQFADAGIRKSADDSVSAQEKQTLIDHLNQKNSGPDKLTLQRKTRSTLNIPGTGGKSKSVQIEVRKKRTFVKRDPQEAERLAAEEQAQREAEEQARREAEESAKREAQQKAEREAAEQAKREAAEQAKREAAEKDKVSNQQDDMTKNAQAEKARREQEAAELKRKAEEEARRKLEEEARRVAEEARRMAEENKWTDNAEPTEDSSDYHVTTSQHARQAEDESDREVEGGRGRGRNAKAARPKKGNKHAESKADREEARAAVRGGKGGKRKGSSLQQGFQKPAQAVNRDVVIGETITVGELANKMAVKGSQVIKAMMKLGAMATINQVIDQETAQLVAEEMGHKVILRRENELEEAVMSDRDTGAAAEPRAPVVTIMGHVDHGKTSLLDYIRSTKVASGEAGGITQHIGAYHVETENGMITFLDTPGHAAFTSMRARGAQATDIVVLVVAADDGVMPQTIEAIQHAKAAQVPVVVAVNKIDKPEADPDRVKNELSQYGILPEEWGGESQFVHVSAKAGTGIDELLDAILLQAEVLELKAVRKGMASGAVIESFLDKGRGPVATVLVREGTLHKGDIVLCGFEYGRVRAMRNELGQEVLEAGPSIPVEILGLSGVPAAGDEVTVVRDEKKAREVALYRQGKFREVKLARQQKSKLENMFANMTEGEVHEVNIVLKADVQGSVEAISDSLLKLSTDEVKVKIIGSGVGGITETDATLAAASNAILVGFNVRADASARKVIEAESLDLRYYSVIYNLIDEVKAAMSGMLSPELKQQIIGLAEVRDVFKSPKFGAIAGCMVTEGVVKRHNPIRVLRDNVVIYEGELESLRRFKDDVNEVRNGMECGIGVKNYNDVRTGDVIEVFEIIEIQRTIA", "assay": "30S IC formation by MST, guanosine nucleotide titration;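 on MST Average: lower thermophoresis signal means Bpy-tRNAi dissociation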;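 on MST Replicates (a.u.): lower thermophoresis signal means Bpy-tRNAi dissociation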", "type": "binding", "details": "for MST Average / MST Replicates (a.u.): Fig 2B (GDP/ppGpp series)", "excerpt": "To monitor the interaction of initiator tRNA and 30S ribosomal subunits, we used Microscale Thermophoresis (MST) with a fluorescently labelled initiator tRNA (Bpy-tRNAi) (Fig 1B). MST allows to measure fluorescence in a constrained space. Changes on the readout derive from molecular drifts resulting from small thermal equilibrium perturbations. Upon equilibrium perturbations, the patterns of Bpy-tRNAi migration away from the observation space are related to bound and unbound states (Fig 1B). […] On the contrary, a decrease in thermophoresis indicated the dissociation of Bpy-tRNAi. The relation between fluorescence measured at both equilibriums (Ff to Fi, after and prior to the perturbation, respectively) as a function of ligand concentration allowed to determine dissociation constants of the interaction (Fig 1C).\nContinuous lines indicate nonlinear regression fittings with a quadratic equation. Three measurements were performed; mean and standard deviation are plotted (S1 Data). (B) as (A) to measure the concentration dependence for each tested guanosine nucleotide at constant IF2 (1 μM). […] Continuous lines show best fits using exponential functions. (D) Formation of 70S IC as measured by Bpy-tRNAi accommodation in the P site of the ribosome; 0.1 μM 30S ICs were formed with Bpy-tRNAi and rapidly mixed with 0.3 μM 50S subunits on a stopped-flow apparatus as described in [14]. Colors are as in (C). Continuous lines show best fits using an exponential function for a single reaction step. Each stopped-flow trace results from the mean of 5 to 7 replicates.\nMST was calculated from the respective fluorescence time dependencies (S3 Fig). […] Symbols as in (B). […] Continuous lines indicate nonlinear regression fittings with quadratic (B and E) or same-site competition (G) functions. Three measurements were performed; mean and standard deviations are plotted (S1 Data)."}, "[2]": {"biological_target": "T2, IF2 (Escherichia coli, UniProt P0A705)", "T2 construct": "6xHis (N); made in house", "T2 sequence (P0A705 whole entry)": "as the sequence (P0A705 whole entry, looked up) above", "assay": "IF2-Bpy-tRNAi-GNP ternary complex formation by MST", "type": "binding", "details": "S2A Fig", "description": "Supplementary file pbio.3000593.s002.pdf: S2 Fig IF2-Bpy-tRNAi complex formation as a function of guanosine nucleotides. (A) IF2 concentration dependencies for Bpy-tRNAi binding in the presence of 0.5 mM of the indicated guanosine nucleotides to build IF2-tRNA-GNP ternary complexes (TCs). […] Three to five measurements were performed; mean and standard deviation are plotted (S1 Data). […] (PDF) Click here for additional data file."}}, "note": "Where “and” joins values, the source holds several entries; their conditions need not be identical. Equal entries are not always repeated.", "data": [{"smiles": "Nc1nc2c(ncn2[C@@H]2O[C@H](COP(=O)(O)OP(=O)(O)O)[C@@H](O)[C@H]2O)c(=O)[nH]1", "note": "[GDP, guanosine diphosphate]", "values": [{"measurement": "MST Average", "setting": "[1]; nucleotide 0.13 µM", "value": 933.71, "unit": "a.u."}, {"measurement": "MST Replicates (a.u.)", "setting": "[1]; nucleotide 0.13 µM, constant IF2 (1 μM)", "value": "931.66 a.u. and 934.22 a.u. and 933.66 a.u. and 935.28 a.u."}, {"measurement": "MST Average", "setting": "[1]; nucleotide 0.25 µM", "value": 934.55, "unit": "a.u."}, {"measurement": "MST Replicates (a.u.)", "setting": "[1]; nucleotide 0.25 µM", "value": "933.08 a.u. and 934.64 a.u. and 934.32 a.u. and 936.15 a.u."}, {"measurement": "MST Average", "setting": "[1]; nucleotide 0.50 µM", "value": 935.70, "unit": "a.u."}, {"measurement": "MST Replicates (a.u.)", "setting": "[1]; nucleotide 0.50 µM", "value": "933.41 a.u. and 935.59 a.u. and 935.81 a.u. and 937.99 a.u."}, {"measurement": "MST Average", "setting": "[1]; nucleotide 1.00 µM", "value": 937.58, "unit": "a.u."}, {"measurement": "MST Replicates (a.u.)", "setting": "[1]; nucleotide 1.00 µM", "value": "936.31 a.u. and 938.31 a.u. and 936.76 a.u. and 938.95 a.u."}, {"measurement": "MST Average", "setting": "[1]; nucleotide 2.00 µM", "value": 940.10, "unit": "a.u."}, {"measurement": "MST Replicates (a.u.)", "setting": "[1]; nucleotide 2.00 µM", "value": "938.98 a.u. and 940.66 a.u. and 939.47 a.u. and 941.28 a.u."}, {"measurement": "MST Average", "setting": "[1]; nucleotide 4.00 µM", "value": 942.84, "unit": "a.u."}, {"measurement": "MST Replicates (a.u.)", "setting": "[1]; nucleotide 4.00 µM", "value": "941.71 a.u. and 943.61 a.u. and 942.43 a.u. and 943.60 a.u."}, {"measurement": "MST Average", "setting": "[1]; nucleotide 8.00 µM", "value": 945.64, "unit": "a.u."}, {"measurement": "MST Replicates (a.u.)", "setting": "[1]; nucleotide 8.00 µM", "value": "944.41 a.u. and 946.59 a.u. and 945.06 a.u. and 946.52 a.u."}, {"measurement": "MST Average", "setting": "[1]; nucleotide 16.00 µM", "value": 952.27, "unit": "a.u."}, {"measurement": "MST Replicates (a.u.)", "setting": "[1]; nucleotide 16.00 µM", "value": "951.48 a.u. and 953.11 a.u. and 951.45 a.u. and 953.06 a.u."}, {"measurement": "MST Average", "setting": "[1]; nucleotide 31.00 µM", "value": 953.23, "unit": "a.u."}, {"measurement": "MST Replicates (a.u.)", "setting": "[1]; nucleotide 31.00 µM", "value": "951.79 a.u. and 954.63 a.u. and 951.76 a.u. and 954.74 a.u."}, {"measurement": "MST Average", "setting": "[1]; nucleotide 62.00 µM", "value": 952.59, "unit": "a.u."}, {"measurement": "MST Replicates (a.u.)", "setting": "[1]; nucleotide 62.00 µM", "value": "952.17 a.u. and 953.16 a.u. and 951.66 a.u. and 953.37 a.u."}, {"measurement": "MST Average", "setting": "[1]; nucleotide 125.00 µM", "value": 950.10, "unit": "a.u."}, {"measurement": "MST Replicates (a.u.)", "setting": "[1]; nucleotide 125.00 µM", "value": "949.56 a.u. and 950.68 a.u. and 949.29 a.u. and 950.89 a.u."}, {"measurement": "promotion of Bpy-tRNAi binding (thermophoresis) in guanosine nucleotide titration", "setting": "[1]; constant IF2 (1 μM)", "value": "failed to promote Bpy-tRNAi binding at any concentration"}, {"measurement": "MST Average", "setting": "[2]; IF2 0.08 µM", "value": 942.60, "unit": "a.u."}, {"measurement": "MST Replicates", "setting": "[2]; IF2 0.08 µM", "value": "949.60 a.u. and 944.98 a.u. and 933.23 a.u."}, {"measurement": "MST Average", "setting": "[2]; IF2 0.16 µM", "value": 942.82, "unit": "a.u."}, {"measurement": "MST Replicates", "setting": "[2]; IF2 0.16 µM", "value": "948.93 a.u. and 934.15 a.u. and 945.38 a.u."}, {"measurement": "MST Average", "setting": "[2]; IF2 0.31 µM", "value": 943.82, "unit": "a.u."}, {"measurement": "MST Replicates", "setting": "[2]; IF2 0.31 µM", "value": "946.47 a.u. and 934.49 a.u. and 950.50 a.u."}, {"measurement": "MST Average", "setting": "[2]; IF2 0.63 µM", "value": 944.11, "unit": "a.u."}, {"measurement": "MST Replicates", "setting": "[2]; IF2 0.63 µM", "value": "935.16 a.u. and 946.20 a.u. and 950.97 a.u."}, {"measurement": "MST Average", "setting": "[2]; IF2 1.25 µM", "value": 945.61, "unit": "a.u."}, {"measurement": "MST Replicates", "setting": "[2]; IF2 1.25 µM", "value": "951.42 a.u. and 947.72 a.u. and 937.68 a.u."}, {"measurement": "MST Average", "setting": "[2]; IF2 2.50 µM", "value": 948.90, "unit": "a.u."}, {"measurement": "MST Replicates", "setting": "[2]; IF2 2.50 µM", "value": "941.84 a.u. and 953.50 a.u. and 951.35 a.u."}, {"measurement": "MST Average", "setting": "[2]; IF2 5.00 µM", "value": 954.49, "unit": "a.u."}, {"measurement": "MST Replicates", "setting": "[2]; IF2 5.00 µM", "value": "948.07 a.u. and 955.91 a.u. and 959.48 a.u."}, {"measurement": "MST Average", "setting": "[2]; IF2 10.00 µM", "value": 962.55, "unit": "a.u."}, {"measurement": "MST Replicates", "setting": "[2]; IF2 10.00 µM", "value": "958.33 a.u. and 964.33 a.u. and 964.97 a.u."}, {"measurement": "MST Average", "setting": "[2]; IF2 20.00 µM", "value": 973.27, "unit": "a.u."}, {"measurement": "MST Replicates", "setting": "[2]; IF2 20.00 µM", "value": "973.71 a.u. and 974.19 a.u. and 971.91 a.u."}, {"measurement": "MST Average", "setting": "[2]; IF2 40.00 µM", "value": 980.27, "unit": "a.u."}, {"measurement": "MST Replicates", "setting": "[2]; IF2 40.00 µM", "value": "984.66 a.u. and 983.20 a.u. and 972.95 a.u."}]}]}
